{
  "source": "paper PMC3634901",
  "about": "(Bioorganic & medicinal chemistry letters, 2013)",
  "key": {"[1]": {"tested_on": "retinal endothelial cells", "test": "VEGF/TNF-induced retinal endothelial permeability assay", "format": "cell-based", "conditions": "dose response; in words"}, "[2]": {"tested_on": "Akt activation", "conditions": "endothelial cells; cited from earlier work"}, "[3]": {"tested_on": "Erk activation", "conditions": "endothelial cells; cited from earlier work"}, "[4]": {"tested_on": "AGC kinases", "conditions": "panel of 20 AGC kinases; cited from earlier work"}, "[5]": {"tested_on": "aPKC isoforms (PKCζ, PKCι)", "test": "kinase potency against aPKC isoforms", "conditions": "without discrimination for PKCζ or PKCι; in words"}, "[6]": {"tested_on": "TNF-induced NFκB activation", "format": "cell-based", "conditions": "single dose of 0.1 μM; in words"}},
  "note": "Entries after “also recorded” stand apart in the source; their conditions may differ.",
  "data": [
    {"smiles": "COc1ccc(-c2csc(N)c2C(=O)OC(C)C)cc1OC", "note": "[compound 6]", "values": [
      {"measurement": "efficacy in preventing TNF/VEGF-induced endothelial permeability", "setting": "[1]", "value": "good efficacy"},
      {"measurement": "block of VEGF-induced Akt activation", "setting": "[2]", "value": "does not block"},
      {"measurement": "block of VEGF-induced Erk activation", "setting": "[3]", "value": "does not block"},
      {"measurement": "specificity towards aPKC isoforms versus AGC family members", "setting": "[4]", "value": "high degree of specificity; also recorded: excellent selectivity"},
      {"measurement": "potency against aPKC isoforms", "setting": "[5]", "value": "low micromolar to high nanomolar potency"}
    ]},
    {"smiles": "CCOC(=O)c1c(-c2ccc(N(C)C)cc2)csc1N", "note": "[compound 30]", "values": [
      {"measurement": "efficacy in preventing TNF/VEGF-induced endothelial permeability", "setting": "[1]", "value": "good efficacy"},
      {"measurement": "potency against aPKC isoforms", "setting": "[5]", "value": "low micromolar to high nanomolar potency"}
    ]},
    {"smiles": "CCOC(=O)c1c(-c2ccc3c(c2)OCO3)csc1N", "note": "[compound 32]", "values": [
      {"measurement": "inhibition of TNF-induced NFκB activity", "setting": "[6]", "value": "significant inhibition"},
      {"measurement": "efficacy in preventing TNF/VEGF-induced endothelial permeability", "setting": "[1]", "value": "good efficacy"},
      {"measurement": "potency against aPKC isoforms", "setting": "[5]", "value": "low micromolar to high nanomolar potency"}
    ]},
    {"smiles": "COc1ccc(-c2csc(N)c2C(=O)OCc2ccccc2)cc1OC", "note": "[compound 10]", "values": [
      {"measurement": "inhibition of TNF-induced NFκB activity", "setting": "[6]", "value": "significant inhibition"}
    ]},
    {"smiles": "COc1cccc(COC(=O)c2c(-c3ccc(OC)c(OC)c3)csc2N)c1", "note": "[compound 14]", "values": [
      {"measurement": "inhibition of TNF-induced NFκB activity", "setting": "[6]", "value": "significant inhibition"},
      {"measurement": "potency against aPKC isoforms", "setting": "[5]", "value": "low micromolar to high nanomolar potency"}
    ]},
    {"smiles": "CCOC(=O)c1c(-c2ccc(N)cc2)csc1N", "note": "[compound 29]", "values": [
      {"measurement": "inhibition of TNF-induced NFκB activity", "setting": "[6]", "value": "significant inhibition"},
      {"measurement": "efficacy in preventing TNF/VEGF-induced endothelial permeability", "setting": "[1]", "value": "good efficacy"}
    ]}
  ]
}
